This is an account of results in ChEMBL document CHEMBL1201862, “PubChem BioAssay data set” (2004).

Test systems include ACHN; OVCAR-4; COLO 205; SK-MEL-2; A498; RXF 393; UACC-257; SN12C; HOP-92; SK-MEL-5; HCT-116; NCI-H23; UACC-62; HCC 2998; NCI-H226; UO-31; SK-OV-3.
Holding throughout (test): NCI anticancer screen, dose series, 48 h

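48-hour exposure; five concentrations; linearly interpolated endpoints. GI50 = concentration required for 50% inhibition of growth.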 The source made the active and inactive calls. Rule as the data show it: active = GI50 up to about 1.1 µM and inactive = higher.

With `C[C@@H]1CC[C@@]2(C)OC(c3ccccc3)[C@H](CO)N2C1=O` (some centres undefined), the GI50 in the assay with ACHN, with OVCAR-4, in the assay on COLO 205, with SK-MEL-2, in the assay on A498 and in the assay with RXF 393 was > 100 µM (inactive) throughout. Moreover, the GI50 in the assay with UACC-257, in the assay with SN12C, in the assay with HOP-92, in the assay with SK-MEL-5, in the assay on HCT-116 and in the assay with NCI-H23 was > 100 µM (inactive) each time. Moreover, the GI50 in the assay on UACC-62 was > 100 µM (inactive).

Consider `CCCC(=O)c1c(NOC2OC(COC(C)=O)C(OC(C)=O)C(OC(C)=O)C2OC(C)=O)nc(OC)n(C)c1=O` (centres undefined), for which the GI50 in the assay with ACHN, in the assay with HCC 2998, in the assay with NCI-H226, with OVCAR-4, in the assay on COLO 205 and in the assay on SK-MEL-2 was > 100 µM (inactive) each time. Also, the GI50 is > 100 µM (inactive) in the assay on RXF 393; > 100 µM (inactive) with SN12C; > 100 µM (inactive) in the assay on SK-MEL-5; > 100 µM (inactive) in the assay on HCT-116; > 100 µM (inactive) in the assay with NCI-H23; 6.1 µM (inactive) with UO-31. Besides, the GI50 with UACC-62 is > 100 µM (inactive).

Regarding `COc1cc2c(Cc3cc(OCc4ccccc4)ccc3N)nccc2c(OC)c1OC`, the GI50 in the assay with ACHN, in the assay on SK-OV-3, in the assay on HCC 2998, in the assay on NCI-H226, in the assay with COLO 205 and in the assay on SK-MEL-2 was > 10 µM (inactive) throughout. In addition, the GI50 in the assay with RXF 393, in the assay on UACC-257, with SN12C, in the assay on HOP-92, with SK-MEL-5 and in the assay with HCT-116 was > 10 µM (inactive) each time. The GI50 in the assay on NCI-H23, with UO-31 and with UACC-62 was > 10 µM (inactive) throughout.

For `Cc1cc2c(c(C#N)c1C)NC(=O)CCC2=O`, the GI50 in the assay with ACHN, in the assay with HCC 2998, with OVCAR-4, in the assay on COLO 205, with SK-MEL-2 and in the assay on A498 was > 100 µM (inactive) throughout. In addition, the GI50 with RXF 393 is 64 µM (inactive); with UACC-257, > 100 µM (inactive); in the assay with SN12C, > 100 µM (inactive); with HCT-116, > 100 µM (inactive); in the assay with NCI-H23 it was > 100 µM (inactive); with UO-31, 16.5 µM (inactive). The GI50 in the assay on UACC-62 was > 100 µM (inactive).

For the compound `N#CC(c1ccccc1)c1nc2ccc(N)cc2[n+]([O-])c1C(C#N)c1ccccc1` (centres undefined), the GI50 is 58.1 µM (inactive) with ACHN; > 100 µM (inactive) in the assay with SK-OV-3; > 100 µM (inactive) with NCI-H226; 74 µM (inactive) with OVCAR-4; 76.4 µM (inactive) in the assay on COLO 205; 40.2 µM (inactive) in the assay on SK-MEL-2. Also, the GI50 was > 100 µM (inactive) in the assay with A498; 38.9 µM (inactive) in the assay with RXF 393; > 100 µM (inactive) in the assay with UACC-257; 79.1 µM (inactive) in the assay on SN12C; 1 µM (active) in the assay with SK-MEL-5; 54.1 µM (inactive) in the assay on HCT-116. Besides, the GI50 is 67.8 µM (inactive) with NCI-H23, 68.2 µM (inactive) in the assay with UO-31 and 47.3 µM (inactive) with UACC-62.

In the case of `COc1cc(-c2cc(=O)c3cc(C)c(C)c(C(=O)O)c3o2)cc(OC)c1OC`, the GI50 with ACHN, with SK-OV-3, in the assay on HCC 2998, in the assay on OVCAR-4, in the assay with COLO 205 and with SK-MEL-2 was > 100 µM (inactive) each time. Besides, the GI50 in the assay on A498, in the assay on UACC-257, in the assay with SN12C, in the assay on HOP-92, in the assay on SK-MEL-5 and in the assay on HCT-116 was > 100 µM (inactive) each time. The GI50 with NCI-H23, with UO-31 and in the assay on UACC-62 was > 100 µM (inactive) in each case.

`CC(=O)OCC12CC(CC1OC(C)=O)c1ccccc12` (centres undefined): the GI50 with ACHN, with SK-OV-3, in the assay with HCC 2998, in the assay with NCI-H226, in the assay on OVCAR-4 and in the assay on COLO 205 was > 100 µM (inactive) each time. Moreover, the GI50 in the assay with A498, in the assay with UACC-257, in the assay on SN12C, with HOP-92, with SK-MEL-5 and in the assay with HCT-116 was > 100 µM (inactive) in each case. The GI50 in the assay on NCI-H23, in the assay with UO-31 and with UACC-62 was > 100 µM (inactive) throughout.

Take `CCOC(=O)C(C(=O)c1ccccc1-c1ccccc1C(=O)O)=P(c1ccccc1)(c1ccccc1)c1ccccc1`: the GI50 with ACHN was 30 µM (inactive); with HCC 2998, 22.3 µM (inactive); with NCI-H226 it was 24.4 µM (inactive); in the assay with OVCAR-4, 18 µM (inactive); in the assay on COLO 205, 19.1 µM (inactive); in the assay with SK-MEL-2, 20.6 µM (inactive). Besides, the GI50 was 25.4 µM (inactive) in the assay on A498; 37.2 µM (inactive) in the assay with RXF 393; 25.5 µM (inactive) in the assay on UACC-257; 30.5 µM (inactive) with SN12C; 15.5 µM (inactive) in the assay with SK-MEL-5; 18.7 µM (inactive) in the assay on HCT-116. For the same compound, the GI50 in the assay on NCI-H23 was 20 µM (inactive); in the assay on UO-31 it was > 10 µM (inactive); with UACC-62, 17.4 µM (inactive).

On to `CC1C(c2ccccc2)=CCON1c1ccccc1` (centres undefined), for which the GI50 with ACHN, in the assay with SK-OV-3, in the assay on HCC 2998, in the assay with NCI-H226, in the assay on OVCAR-4 and with COLO 205 was > 100 µM (inactive) throughout. In addition, the GI50 in the assay with SK-MEL-2, with RXF 393, in the assay on UACC-257, with SN12C, with SK-MEL-5 and with HCT-116 was > 100 µM (inactive) each time. Also, the GI50 with NCI-H23, in the assay with UO-31 and in the assay with UACC-62 was > 100 µM (inactive) in each case.

Take `CCCCN(CC)CC(C(C)=O)c1c(O)c2ccccc2oc1=O` (centres undefined): the GI50 in the assay on ACHN, with SK-OV-3, in the assay with HCC 2998, with NCI-H226, in the assay with OVCAR-4 and with COLO 205 was > 100 µM (inactive) throughout. Also, the GI50 in the assay with SK-MEL-2, in the assay with A498, in the assay on RXF 393, in the assay with UACC-257, with SN12C and in the assay on SK-MEL-5 was > 100 µM (inactive) throughout. Also, the GI50 in the assay with HCT-116 was > 100 µM (inactive); in the assay on NCI-H23, 15.4 µM (inactive); with UO-31 it was > 100 µM (inactive); with UACC-62 it was > 100 µM (inactive).

Regarding `C1=Cc2nc1c(-c1ccncc1)c1ccc([n-]1)c(-c1ccncc1)c1nc(c(-c3ccncc3)c3ccc([n-]3)c2-c2ccncc2)C=C1.[Zn+2]`, the GI50 in the assay with ACHN, with SK-OV-3, in the assay with HCC 2998, with NCI-H226, in the assay on OVCAR-4 and in the assay with COLO 205 was > 100 µM (inactive) throughout. The GI50 with SK-MEL-2, with UACC-257, with SN12C, in the assay on HOP-92, in the assay with SK-MEL-5 and in the assay on HCT-116 was > 100 µM (inactive) each time. For the same compound, the GI50 in the assay on NCI-H23, in the assay with UO-31 and in the assay with UACC-62 was > 100 µM (inactive) each time.

`CCOC(=O)C(Cc1cn(S(=O)(=O)c2ccccc2)c2ccccc12)(NC(C)=O)C(=O)OCC`: the GI50 in the assay with ACHN is 32.3 µM (inactive); with HCC 2998, 34 µM (inactive); in the assay on NCI-H226, 21.3 µM (inactive); with OVCAR-4, 33.3 µM (inactive); in the assay on COLO 205, 25 µM (inactive); in the assay on SK-MEL-2, 30.6 µM (inactive). Moreover, the GI50 in the assay with UACC-257 was 24.5 µM (inactive); in the assay with HOP-92, 19.8 µM (inactive); in the assay with SK-MEL-5 it was 15.8 µM (inactive); in the assay on HCT-116, 24.7 µM (inactive); in the assay with NCI-H23, 26.3 µM (inactive); with UO-31 it was 17.1 µM (inactive). Further, in the assay on UACC-62, the GI50 is 27.9 µM (inactive).

Take `CC(=O)O[C@H]1CCC2[C@@H]3CCC4=C(O)c5nocc5C[C@]4(C)C3CC[C@@]21C` (some centres undefined): the GI50 in the assay on ACHN, in the assay on SK-OV-3, in the assay with NCI-H226, in the assay with OVCAR-4, in the assay on COLO 205 and with SK-MEL-2 was > 100 µM (inactive) each time. Moreover, the GI50 in the assay with A498, with RXF 393, with UACC-257, with SN12C, with HOP-92 and in the assay on SK-MEL-5 was > 100 µM (inactive) each time. Further, the GI50 with HCT-116, in the assay with NCI-H23, in the assay on UO-31 and in the assay on UACC-62 was > 100 µM (inactive) throughout.
